Entries after “also recorded” stand apart in the source; their conditions may differ.
Assay: Phase I dose escalation study: safety, tolerability, DLT and MTD
Type: in vivo

## Cc1cccc2c1NC(=O)[C@@H](NC(=O)[C@H](CCC(F)(F)F)[C@H](CCC(F)(F)F)C(N)=O)N=C2c1cccc(F)c1 [BMS-986115]
Arm A QD 0.6 mg (N = 2)
  Rash maculopapular (drug related AE, all grades): 0 n (%)
  Sinusitis (drug related AE, all grades): 0 n (%)
  Urticaria (drug related AE, Grade 3 and 4): 0 n (%)
  Vision blurred (drug related AE, all grades): 0 n (%)
  Vomiting (drug related AE, Grade 3 and 4): 0 n (%)
  Vomiting (drug related AE, all grades): 1 (50) n (%)
  Weight decreased (drug related AE, all grades): 0 n (%)
Arm A QD 0.6 mg, 2 DLT evaluable patients
  No. of patients with DLTs: 0
Arm A QD 1.2 mg (N = 6)
  Abdominal distension (drug related AE, all grades): 0 n (%)
  Abdominal pain (drug related AE, Grade 3 and 4): 0 n (%)
  Abdominal pain (drug related AE, all grades): 0 n (%)
  Blood creatinine increased (drug related AE, all grades): 0 n (%)
  Colitis (drug related AE, Grade 3 and 4): 1 (17) n (%)
  Cough (drug related AE, Grade 3 and 4): 0 n (%)
  Cough (drug related AE, all grades): 0 n (%)
  Decreased Appetite (drug related AE, Grade 3 and 4): 0 n (%)
  Decreased Appetite (drug related AE, all grades): 2 (33) n (%)
  Dehydration (drug related AE, Grade 3 and 4): 0 n (%)
  Dehydration (drug related AE, all grades): 2 (33) n (%)
  Dermatitis acneiform (drug related AE, all grades): 0 n (%)
  Diarrhoea (drug related AE, Grade 3 and 4): 1 (17) n (%)
  Diarrhoea (drug related AE, all grades): 6 (100) n (%)
  Dry mouth (drug related AE, all grades): 1 (17) n (%)
  Dry skin (drug related AE, all grades): 1 (17) n (%)
  Dysgeusia (drug related AE, all grades): 2 (33) n (%)
  Dyspepsia (drug related AE, all grades): 1 (17) n (%)
  Dysphonia (drug related AE, all grades): 0 n (%)
  Fatigue (drug related AE, Grade 3 and 4): 0 n (%)
  Fatigue (drug related AE, all grades): 2 (33) n (%)
  Flatulence (drug related AE, all grades): 0 n (%)
  Hypocalcaemia (drug related AE, Grade 3 and 4): 0 n (%)
  Hypocalcaemia (drug related AE, all grades): 0 n (%)
  Hypokalaemia (drug related AE, Grade 3 and 4): 1 (17) n (%)
  Hypokalaemia (drug related AE, all grades): 3 (50) n (%)
  Hyponatraemia (drug related AE, Grade 3 and 4): 0 n (%)
  Hyponatraemia (drug related AE, all grades): 0 n (%)
  Hypophosphataemia (drug related AE, Grade 3 and 4): 2 (33) n (%)
  Hypophosphataemia (drug related AE, all grades): 6 (100) n (%)
  Ileus (drug related AE, Grade 3 and 4): 0 n (%)
  Increased upper airway secretion (drug related AE, all grades): 0 n (%)
  Laryngeal pain (drug related AE, all grades): 0 n (%)
  Leucocytosis (drug related AE, Grade 3 and 4): 0 n (%)
  Mouth ulceration (drug related AE, all grades): 1 (17) n (%)
  Nausea (drug related AE, Grade 3 and 4): 0 n (%)
  Nausea (drug related AE, all grades): 4 (67) n (%)
  Pruritus (drug related AE, Grade 3 and 4): 0 n (%)
  Pruritus (drug related AE, all grades): 0 n (%)
  Pulmonary embolism (drug related AE, Grade 3 and 4): 0 n (%)
  Rash (drug related AE, all grades): 3 (50) n (%)
  Rash maculopapular (drug related AE, all grades): 0 n (%)
  Sinusitis (drug related AE, all grades): 1 (17) n (%)
  Urticaria (drug related AE, Grade 3 and 4): 0 n (%)
  Vision blurred (drug related AE, all grades): 0 n (%)
  Vomiting (drug related AE, Grade 3 and 4): 0 n (%)
  Vomiting (drug related AE, all grades): 2 (33) n (%)
  Weight decreased (drug related AE, all grades): 1 (17) n (%)
Arm A QD 1.5 mg
  Description of DLT: Gr 3 nausea; also recorded: G3 nausea
  Description of study drug toxicity that led to treatment discontinuation: G3 Nausea concurrent with G2 diarrhoea (N = 1); also recorded: G2 Dermatitis acneiform (N = 1)
Arm A QD 1.5 mg (N = 7)
  Abdominal distension (drug related AE, all grades): 1 (14) n (%)
  Abdominal pain (drug related AE, Grade 3 and 4): 1 (14) n (%)
  Abdominal pain (drug related AE, all grades): 1 (14) n (%)
  Blood creatinine increased (drug related AE, all grades): 0 n (%)
  Colitis (drug related AE, Grade 3 and 4): 0 n (%)
  Cough (drug related AE, Grade 3 and 4): 0 n (%)
  Cough (drug related AE, all grades): 2 (29) n (%)
  Decreased Appetite (drug related AE, Grade 3 and 4): 0 n (%)
  Decreased Appetite (drug related AE, all grades): 1 (14) n (%)
  Dehydration (drug related AE, Grade 3 and 4): 0 n (%)
  Dehydration (drug related AE, all grades): 0 n (%)
  Dermatitis acneiform (drug related AE, all grades): 4 (57) n (%)
  Diarrhoea (drug related AE, Grade 3 and 4): 2 (29) n (%)
  Diarrhoea (drug related AE, all grades): 6 (86) n (%)
  Dry mouth (drug related AE, all grades): 0 n (%)
  Dry skin (drug related AE, all grades): 1 (14) n (%)
  Dysgeusia (drug related AE, all grades): 0 n (%)
  Dyspepsia (drug related AE, all grades): 0 n (%)
  Dysphonia (drug related AE, all grades): 1 (14) n (%)
  Fatigue (drug related AE, Grade 3 and 4): 1 (14) n (%)
  Fatigue (drug related AE, all grades): 4 (57) n (%)
  Flatulence (drug related AE, all grades): 0 n (%)
  Hypocalcaemia (drug related AE, Grade 3 and 4): 0 n (%)
  Hypocalcaemia (drug related AE, all grades): 1 (14) n (%)
  Hypokalaemia (drug related AE, Grade 3 and 4): 1 (14) n (%)
  Hypokalaemia (drug related AE, all grades): 2 (29) n (%)
  Hyponatraemia (drug related AE, Grade 3 and 4): 1 (14) n (%)
  Hyponatraemia (drug related AE, all grades): 1 (14) n (%)
  Hypophosphataemia (drug related AE, Grade 3 and 4): 2 (29) n (%)
  Hypophosphataemia (drug related AE, all grades): 4 (57) n (%)
  Ileus (drug related AE, Grade 3 and 4): 0 n (%)
  Increased upper airway secretion (drug related AE, all grades): 0 n (%)
  Laryngeal pain (drug related AE, all grades): 2 (29) n (%)
  Leucocytosis (drug related AE, Grade 3 and 4): 0 n (%)
  Mouth ulceration (drug related AE, all grades): 0 n (%)
  Nausea (drug related AE, Grade 3 and 4): 2 (29) n (%)
  Nausea (drug related AE, all grades): 5 (71) n (%)
  Pruritus (drug related AE, Grade 3 and 4): 0 n (%)
  Pruritus (drug related AE, all grades): 2 (29) n (%)
  Pulmonary embolism (drug related AE, Grade 3 and 4): 1 (14) n (%)
  Rash (drug related AE, all grades): 2 (29) n (%)
  Rash maculopapular (drug related AE, all grades): 0 n (%)
  Sinusitis (drug related AE, all grades): 0 n (%)
  Urticaria (drug related AE, Grade 3 and 4): 0 n (%)
  Vision blurred (drug related AE, all grades): 1 (14) n (%)
  Vomiting (drug related AE, Grade 3 and 4): 0 n (%)
  Vomiting (drug related AE, all grades): 4 (57) n (%)
  Weight decreased (drug related AE, all grades): 1 (14) n (%)
Arm A QD 1.5 mg, 6 DLT evaluable patients
  No. of patients with DLTs: 1
Arm A QD 2.0 mg
  Description of DLT: Gr 3 ileus; Gr 3 nausea; Gr 3 pruritus/urticaria; also recorded: G3 ileus; also recorded: G3 nausea; also recorded: G3 pruritus/urticaria
Arm A QD 2.0 mg (N = 7)
  Abdominal distension (drug related AE, all grades): 0 n (%)
  Abdominal pain (drug related AE, Grade 3 and 4): 0 n (%)
  Abdominal pain (drug related AE, all grades): 1 (14) n (%)
  Blood creatinine increased (drug related AE, all grades): 1 (14) n (%)
  Colitis (drug related AE, Grade 3 and 4): 0 n (%)
  Cough (drug related AE, Grade 3 and 4): 1 (14) n (%)
  Cough (drug related AE, all grades): 1 (14) n (%)
  Decreased Appetite (drug related AE, Grade 3 and 4): 0 n (%)
  Decreased Appetite (drug related AE, all grades): 5 (71) n (%)
  Dehydration (drug related AE, Grade 3 and 4): 0 n (%)
  Dehydration (drug related AE, all grades): 1 (14) n (%)
  Dermatitis acneiform (drug related AE, all grades): 0 n (%)
  Diarrhoea (drug related AE, Grade 3 and 4): 1 (14) n (%)
  Diarrhoea (drug related AE, all grades): 5 (71) n (%)
  Dry mouth (drug related AE, all grades): 1 (14) n (%)
  Dry skin (drug related AE, all grades): 1 (14) n (%)
  Dysgeusia (drug related AE, all grades): 1 (14) n (%)
  Dyspepsia (drug related AE, all grades): 1 (14) n (%)
  Dysphonia (drug related AE, all grades): 3 (43) n (%)
  Fatigue (drug related AE, Grade 3 and 4): 0 n (%)
  Fatigue (drug related AE, all grades): 4 (57) n (%)
  Flatulence (drug related AE, all grades): 0 n (%)
  Hypocalcaemia (drug related AE, Grade 3 and 4): 0 n (%)
  Hypocalcaemia (drug related AE, all grades): 0 n (%)
  Hypokalaemia (drug related AE, Grade 3 and 4): 2 (29) n (%)
  Hypokalaemia (drug related AE, all grades): 2 (29) n (%)
  Hyponatraemia (drug related AE, Grade 3 and 4): 0 n (%)
  Hyponatraemia (drug related AE, all grades): 0 n (%)
  Hypophosphataemia (drug related AE, Grade 3 and 4): 3 (43) n (%)
  Hypophosphataemia (drug related AE, all grades): 3 (43) n (%)
  Ileus (drug related AE, Grade 3 and 4): 1 (14) n (%)
  Increased upper airway secretion (drug related AE, all grades): 0 n (%)
  Laryngeal pain (drug related AE, all grades): 0 n (%)
